As usually defined, the IC50 is the concentration at which inhibition is half-maximal. A higher IC50 goes with a need for much substance.

The target of assay [1] is T1, Beta-secretase 1 (Homo sapiens, UniProt P56817). Briefly: Inhibition of BACE by TR-FRET assay.
Assay [2] addresses T1, Beta-secretase 1. As to the kind of experiment: Inhibition of BACE by secreted APPbeta release assay.

T1 sequence (P56817 whole entry): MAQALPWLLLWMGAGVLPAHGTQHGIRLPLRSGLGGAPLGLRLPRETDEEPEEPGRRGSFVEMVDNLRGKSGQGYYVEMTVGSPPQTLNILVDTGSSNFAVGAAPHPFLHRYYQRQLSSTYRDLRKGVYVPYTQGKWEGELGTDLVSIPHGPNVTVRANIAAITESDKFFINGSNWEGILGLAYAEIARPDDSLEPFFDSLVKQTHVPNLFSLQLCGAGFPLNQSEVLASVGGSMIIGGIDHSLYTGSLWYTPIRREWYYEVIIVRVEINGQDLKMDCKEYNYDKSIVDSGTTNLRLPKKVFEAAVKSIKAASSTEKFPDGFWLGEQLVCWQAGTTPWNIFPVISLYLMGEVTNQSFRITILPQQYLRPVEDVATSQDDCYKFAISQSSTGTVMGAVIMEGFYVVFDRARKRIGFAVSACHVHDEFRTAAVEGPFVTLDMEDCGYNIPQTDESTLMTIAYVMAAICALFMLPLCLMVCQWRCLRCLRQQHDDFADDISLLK

As to `CC#Cc1cncc(-c2ccc3c(c2)C2(N=C(C)C(N)=N2)C2(CCC(OC)CC2)O3)c1` (configuration not stated), the half-maximal inhibitory concentration (IC50) came to 1.4 nM in assay [1] and 2.2 nM in assay [2].

Source of the values: ChEMBL document CHEMBL2150891, “Compounds and Their Use as BACE Inhibitors: Patent Highlight” (ACS Med Chem Lett, 2012).
